Laboratory results reported in US20120070442A1, “METHODS AND COMPOSITIONS FOR TREATING CANCER” (The Regents of the University of Colorado, a body corporate, priority 2007, published 2012).

System: NSCLC
Assay: Clinical response and survival of NSCLC patients treated with gefitinib
Type: in vivo, human
Excerpt: After appropriate approval from the institution and written informed consent for comprehensive use of molecular and pathologic analysis was received from each patient, NSCLC specimens were formalin-fixed, paraffin-embedded at Tokyo Medical University, Tokyo, Japan. Information on gender, age, histology, cigarette use, response, and survival was obtained for each patient. Tumor specimens were microdissected under stereoscopic microscopy (LEICA MZ12, Leica Microsystems, Wetzlar, Germany). DNA was extracted from tumor cells with the DNeasy Tissue Kit (Qiagen, Valencia, Calif.).
For all tests, a level of P<0.05 was considered statistically significant. Fisher's exact test for count data was used to analyze proportions among the factors studied. […] In this case, response or stable disease was considered a positive outcome while progressive disease was considered negative. The Kaplan-Meier method was used to estimate the probability of survival as a function of time. […] Significant differences between survival curves were analyzed using the log-rank test. Multivariate analysis of the relative importance of the factors to survival was performed using the Cox proportional-hazards method.
Each sample was analyzed in triplicate on a quantitation run. The ratio of miR-128b to CFTR DNA copies was determined. […]

COc1cc2ncnc(Nc3ccc(F)c(Cl)c3)c2cc1OCCCN1CCOCC1 [Gefitinib, N-(3-chloro-4-fluoro-phenyl)-7-methoxy-6-(3-morpholin-4-ylpropoxy)quinazolin-4-amine]
survival after initiation of gefitinib therapy (NSCLC patients with deletion of miR-128b by DNA copy): 23.3 months
survival after initiation of gefitinib therapy (NSCLC patients without deletion of miR-128b by DNA copy): 10.7 months
